Patent publication US8049034B2, “Biphenyl compound selective agonists of gamma RAR receptors” (Galderma Research & Development, priority 2005, dated 2011)

Assays:
Format in all cases: cell-based
RAR beta = biological target: T1, RAR beta (Homo sapiens, UniProt P10826); experiment: Transactivation test (luciferase reporter, HeLa stable transfectants), RAR beta; settings: apparent Kd from Schild regression, cross curves against reference antagonist, HeLa cells; read-out: RAR beta Kdapp
T1 sequence (P10826 183-417 limits assumed): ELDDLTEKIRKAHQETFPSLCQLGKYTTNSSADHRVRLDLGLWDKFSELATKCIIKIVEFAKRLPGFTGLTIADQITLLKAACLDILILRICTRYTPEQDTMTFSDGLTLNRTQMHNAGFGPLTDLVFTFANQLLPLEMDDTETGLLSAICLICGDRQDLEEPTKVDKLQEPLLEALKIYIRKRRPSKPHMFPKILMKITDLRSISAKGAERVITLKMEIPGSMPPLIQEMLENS
Method: (§1) The activation of the receptors by an agonist (activator) in HeLa cells results in the expression of a reporter gene, luciferase, which, in the presence of a substrate, generates light. It is thus possible to measure the activation of the receptors by quantifying the luminescence produced after incubation of the cells in the presence of a reference antagonist. The activating products displace the antagonist from its site, thus allowing activation of the receptor. The activity is measured by quantifying the increase in the light produced. This measurement makes it possible to determine the activator activity of the compound that can be used in the invention.
(§2) In this study, a constant which represents the affinity of the molecule for the receptor is determined. Since this value can fluctuate according to the basal activity and the expression of the receptor, it is designated apparent Kd (KdApp).
(§3) The test product is used at 10 concentrations and the reference antagonist at 7 concentrations. In each well (of a 96-well plate), the cells are in contact with one concentration of the test product and one concentration of the reference antagonist.
(§4) Measurements are also carried out for the total agonist control, otherwise known as 100% control (4-[2-(5,5,8,8-tetramethyl-5,6,7,8-tetrahydronaphthalen-2-yl)propenyl]benzoic acid), and the inverse agonist control, otherwise known as 0% control (4-{(E)-3-[4-(4-tert-butylphenyl)-5,5,8,8-tetramethyl-5,6,7,8-tetrahydronaphthalen-2-yl)]-3-oxopropenyl}benzoic acid).
(§5) In the case of an agonist, the AC50 is calculated by plotting the curve of the product at the concentration of the reference ligand giving 80% activation. The percentage activation which corresponds to the maximum level of activity obtained is also measured.
(§6) The HeLa cell lines used are stable transfectants containing the plasmids ERE-βGlob-Luc-SV-Neo (reporter gene) and RAR (α, β, γ) ER-DBO-puro. These cells are seeded into 96-well plates at a rate of 10 000 cells per well in 100 μl of DMEM medium without phenol red and supplemented with 10% defatted calf serum. The plates are then incubated at 37° C., 7% CO2 for 4 hours.
(§7) The various dilutions of the test product, of the reference ligand
(§8) (4-(5,5-dimethyl-8-p-tolyl-5,6-dihydronaphthalen-2-ylethynyl)benzoic acid), of the 100% control (100 nM 4-[2-(5,5,8,8-tetramethyl-5,6,7,8-tetrahydronaphthalen-2-yl)propenyl]benzoic acid) and of the 0% control (500 nM 4-{(E)-3-[4-(4-tert-butylphenyl)-5,5,8,8-tetramethyl-5,6,7,8-tetrahydronaphthalen-2-yl)]-3-oxopropenyl}benzoic acid) are added at a rate of 5 μl per well. The plates are then incubated for 18 hours at 37° C., 7% CO2.
(§9) The culture medium is removed by turning the plates over, and 100 μl of a 1:1 PBS (phosphate buffered solution)/luciferin mixture are added to each well. After 5 minutes, the plates are read using the luminescence reader.

RAR alpha = biological target: T2, RAR alpha (Homo sapiens, UniProt P10276); experiment: Transactivation test (luciferase reporter, HeLa stable transfectants), RAR alpha; settings: apparent Kd from Schild regression, cross curves against reference antagonist, HeLa cells; read-out: RAR alpha Kdapp
T2 sequence (P10276 183-417 limits assumed): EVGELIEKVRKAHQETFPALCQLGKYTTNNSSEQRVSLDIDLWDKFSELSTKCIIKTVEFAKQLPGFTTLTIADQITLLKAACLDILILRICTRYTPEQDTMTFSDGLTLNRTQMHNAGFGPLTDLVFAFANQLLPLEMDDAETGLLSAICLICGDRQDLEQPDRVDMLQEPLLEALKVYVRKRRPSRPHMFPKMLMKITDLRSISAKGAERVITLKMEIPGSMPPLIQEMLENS
Method: as §1, §2, §3, §4, §5, §6, §7, §8, §9

RAR gamma = biological target: T3, RAR gamma (Homo sapiens, UniProt P13631); experiment: Transactivation test (luciferase reporter, HeLa stable transfectants), RAR gamma; settings: apparent Kd from Schild regression, cross curves against reference antagonist, HeLa cells; read-out: RAR gamma Kdapp
T3 construct: RAR gamma Kdapp
T3 sequence (P13631 185-419 limits assumed): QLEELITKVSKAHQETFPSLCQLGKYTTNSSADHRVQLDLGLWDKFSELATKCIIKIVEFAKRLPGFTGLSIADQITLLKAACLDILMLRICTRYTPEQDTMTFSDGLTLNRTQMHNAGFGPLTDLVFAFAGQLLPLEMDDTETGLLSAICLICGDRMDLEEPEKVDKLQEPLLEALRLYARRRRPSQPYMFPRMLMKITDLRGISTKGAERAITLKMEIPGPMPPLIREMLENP
Method: as §1, §2, §3, §4
In the case of an agonist, the AC50 is calculated by plotting the curve of the product at the concentration of the reference ligand giving 80% activation. The percentage activation which corresponds to the maximum level of activity obtained is also measured. […]
as §9

Row | Structure (SMILES) | Kd (RAR beta) | Kd (RAR alpha) | Kd (RAR gamma)
1 | CC1(C)CCC(C)(C)c2cc(-c3cc(-c4ccc(C(=O)O)cc4O)ccc3-c3ccccc3)ccc21 [Example 42, 2″-Hydroxy-2′-(5,5,8,8-tetramethyl-5,6,7,8-tetrahydronaphthalen-2-yl)-[1,1′:4,1″]-tert-phenyl-4″-carboxylic acid] | 4 nM | 8 nM | 
2 | COc1cc(C(=O)O)ccc1-c1ccc(-c2ccccc2)c(-c2ccc3c(c2)C(C)(C)CCC3(C)C)c1 [Example 44, 2″-Methoxy-2′-(5,5,8,8-tetramethyl-5,6,7,8-tetrahydronaphthalen-2-yl)-[1,1′:4,1″]-tert-phenyl-4″-carboxylic acid] | 2 nM | 4 nM | 0.5 nM
3 | CC1(C)CCC(C)(C)c2cc(-c3cc(-c4ccc(C(=O)O)cn4)ccc3-c3ccccc3)ccc21 [Example 47, 6-[2-(5,5,8,8-Tetramethyl-5,6,7,8-tetrahydronaphthalen-2-yl)biphenyl-4-yl]nicotinic acid] | 1 nM | 4 nM | 
4 | CC1(C)CCC(C)(C)c2cc(-c3cc(-c4ccc(C(=O)O)c(O)c4)ccc3-c3ccccc3)ccc21 [Example 46, 3″-Hydroxy-2′-(5,5,8,8-tetramethyl-5,6,7,8-tetrahydronaphthalen-2-yl)-[1,1′:4,1″]-tert-phenyl-4″-carboxylic acid] | 1 nM | 2 nM | 0.25 nM
5 | Cc1cc(-c2ccc(-c3ccccc3)c(-c3ccc4c(c3)C(C)(C)CCC4(C)C)c2)ccc1C(=O)O [Example 41, 3″-Methyl-2′-(5,5,8,8-tetramethyl-5,6,7,8-tetrahydronaphthalen-2-yl)-[1,1′:4,1″]-tert-phenyl-4″-carboxylic acid] | 1 nM | 2 nM | 0.25 nM
6 | CC1(C)CCC(C)(C)c2cc(-c3cc(-c4ccc(C(=O)O)cc4)ccc3-c3ccccc3)ccc21 [Example 14, 2′-(5,5,8,8-Tetramethyl-5,6,7,8-tetrahydronaphthalen-2-yl)-[1,1′:4′,1″]-tert-phenyl-4″-carboxylic acid] | 1 nM | 2 nM | 
